Laboratory results from patent publication US20140088298A9, “CONJUGATES COMPRISING HYDROXYALKYL STARCH AND A CYTOTOXIC AGENT AND PROCESS FOR THEIR PREPARATION” (Fresenius Kabi Deutschland GmbH, priority 2010, published 2014).

Key:
Assay type in all cases: in vivo, NMRI:nu/nu mice
[1] = Body weight change as sign for toxicity, mouse tumor model MT-3; conditions: for Toxic deaths (at day): n=8
Experimental: (§1) Tumor growth inhibition was used as therapeutic parameter. Additionally, body weight change was determined as signs for toxicity (particularly, potential hematological or gastrointestinal side effects).
(§2) Individual body weights of mice were determined twice weekly and mean body weight per group was related to the initial value in percent (body weight change, BWC), see tables in appendix.
(§3) Descriptive statistics was performed on the data of body weight and tumor volume. […] Statistical evaluation was performed with the U-test of Mann and Whitney with a significance level of p<0.05, using the Windows program […] 6.
(§4) Tables 18 to 24 summarize the results for the tested Docetaxel conjugates and the reference compound Taxotere®. […] The loss of body weight is known to be an indicator of gastro-intestinal and hepatotoxicity of the tested compound.

[2] = Body weight change as sign for toxicity, mouse tumor model A549; conditions: Table 21, A549; maximum body weight loss; conjugates 1 x 75 mg/kg day 8; Docetaxel 5 mg/kg days 8-12
Experimental: as §1, §2, §3, §4

[3] = Body weight change as sign for toxicity, mouse tumor model PC3; conditions: Table 20, PC3; maximum body weight loss; conjugates 1 x 75 mg/kg day 6; Docetaxel 5 mg/kg days 6-10
Experimental: as §1
Descriptive statistics was performed on the data of body weight and tumor volume. […] 6.

SMILES | Toxic deaths (at day) ([1]; Table 25, MT-3, conjugates 1 x 100 mg/kg day 7, Paclitaxel 12.5 mg/kg days 7-9, 10 mg/kg days 10-11) | Toxic deaths (at day) ([1]; Table 26, MT-3, conjugates 1 x 80 mg/kg day 10, Paclitaxel 10 mg/kg days 10-14) | BWC [%] (at day) [2] | Toxic deaths (at day) ([1]; Table 18, MT-3, conjugates 1 x 100 mg/kg i.v. day 7, Docetaxel 10 mg/kg days 7, 9, 11) | Toxic death (at day) ([1]; Table 23, MT-3, conjugates 1 x 75 mg/kg day 7, Docetaxel 5 mg/kg days 7-11) | BWC [%] (at day) [3]
CC(=O)O[C@H]1C(=O)[C@@]2(C)[C@H]([C@H](OC(=O)c3ccccc3)[C@]3(O)C[C@H](OC(=O)[C@H](O)[C@@H](NC(=O)c4ccccc4)c4ccccc4)C(C)=C1C3(C)C)[C@]1(OC(C)=O)CO[C@@H]1C[C@@H]2O [Paclitaxel] | 1 | 0 | – | – | – | –
CC(=O)O[C@@]12CO[C@@H]1C[C@H](O)[C@@]1(C)C(=O)[C@H](O)C3=C(C)[C@@H](OC(=O)[C@H](O)[C@@H](NC(=O)OC(C)(C)C)c4ccccc4)C[C@@](O)([C@@H](OC(=O)c4ccccc4)[C@H]21)C3(C)C [Taxotere, Docetaxel] | – | – | −5% | 4 | 0 | −14%
